Some test systems named below: ACHN renal; EKVX NSCLC; HCC-2998 colon; MALME-3M melanoma; MDA-N; OVCAR-3 ovarian; PC-3 prostate; RXF 393 renal; SK-OV-3 ovarian.
Assay in all cases: NCI-60 cell line screen, 48 h

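Where inhibition never reached the appropriate level, the endpoint shown equals the highest concentration tested. Otherwise, values were interpolated linearly from a five-concentration, 48-hour dose response in 96-well plates. Here, GI50 denotes the concentration required for 50% inhibition of growth. TGI is the concentration that stops growth completely.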

Take `CCOC(=O)c1cc(-c2ccn(C(C)=O)c2)c(-c2cc(C)co2)[nH]1`: the TGI in the experiment with ACHN renal, in the experiment with EKVX NSCLC, in the experiment on HCC-2998 colon, with MALME-3M melanoma, in the experiment with MDA-N and in the experiment on OVCAR-3 ovarian was greater than 100 µM each time. The TGI with PC-3 prostate and with RXF 393 renal was greater than 100 µM throughout.
Regarding `CC(C)c1nccn1Cc1ccc(Cl)cc1Cl`, the TGI in the experiment on ACHN renal was greater than 100 µM; in the experiment on EKVX NSCLC, greater than 100 µM; in the experiment with HCC-2998 colon it was 88.6 µM; with MALME-3M melanoma it was greater than 100 µM; in the experiment on MDA-N, greater than 100 µM; with OVCAR-3 ovarian it was greater than 100 µM. The TGI with PC-3 prostate and in the experiment with SK-OV-3 ovarian was greater than 100 µM in each case.
As to `COC(=O)C1=C(C)NC2(C)OC(C)(O)C(C(C)=O)C12C(C)=O` (configuration not stated), the TGI was greater than 100 µM in the experiment with ACHN renal; greater than 100 µM in the experiment on EKVX NSCLC; 50.9 µM in the experiment on MALME-3M melanoma; greater than 100 µM in the experiment on MDA-N; greater than 100 µM in the experiment with OVCAR-3 ovarian; greater than 100 µM in the experiment on PC-3 prostate. Moreover, the results for the TGI in the experiment with RXF 393 renal and in the experiment with SK-OV-3 ovarian were greater than 100 µM and 85.8 µM, respectively.
As to `CC1(C)CC2(C)OC(=N)C1(C#N)C2(C#N)C#N` (configuration not stated), the TGI in the experiment on ACHN renal is 20.3 µM; in the experiment with EKVX NSCLC, 19.4 µM; in the experiment on HCC-2998 colon, 24.4 µM; with MALME-3M melanoma it was 31.4 µM; with MDA-N, 20.2 µM; with PC-3 prostate it was 30.3 µM. In addition, the results for the TGI in the experiment on RXF 393 renal and in the experiment on SK-OV-3 ovarian were 27.2 µM and greater than 100 µM, respectively.
For the compound `N#Cc1c(-c2ccc(Cl)cc2)cc(-c2nc3ccccc3[nH]2)nc1N`, the TGI in the experiment on ACHN renal came out at 45.2 µM; in the experiment on EKVX NSCLC it was 46.1 µM; with HCC-2998 colon, 14.3 µM; in the experiment on MALME-3M melanoma, 32.5 µM; with MDA-N, 23.7 µM; in the experiment on OVCAR-3 ovarian it was 41.8 µM. The TGI in the experiment on PC-3 prostate was 32.6 µM; in the experiment with SK-OV-3 ovarian it was 77.4 µM.
As for `CCOC(=O)CCC(C(=O)OCC)n1nnc2cc(Nc3c(C)[n+]([O-])c4ccc(Cl)cc4[n+]3[O-])ccc21` (configuration not stated), the TGI in the experiment on ACHN renal is greater than 100 µM; in the experiment on EKVX NSCLC, 97.1 µM; in the experiment on MALME-3M melanoma it was greater than 100 µM; with MDA-N, greater than 100 µM; with OVCAR-3 ovarian, greater than 100 µM; with PC-3 prostate, greater than 100 µM. Further, the TGI with RXF 393 renal and in the experiment on SK-OV-3 ovarian was greater than 100 µM throughout.
With `Oc1ccc2ccccc2c1OCc1nnc(CCCCCCCCc2nnc(COc3c(O)ccc4ccccc34)o2)o1`, the TGI in the experiment with ACHN renal, in the experiment with EKVX NSCLC, in the experiment on HCC-2998 colon, with MALME-3M melanoma, in the experiment on MDA-N and in the experiment with PC-3 prostate was greater than 100 µM throughout. Also, the TGI in the experiment with RXF 393 renal and in the experiment with SK-OV-3 ovarian was greater than 100 µM throughout.
In the case of `COc1ccc(C2=NNC(=O)c3ccccc3N2c2nc(-c3cccs3)nc3ccc(Br)cc23)cc1`, the TGI in the experiment on ACHN renal is greater than 100 µM; in the experiment with EKVX NSCLC it was 91.5 µM; in the experiment with MALME-3M melanoma, 75.9 µM; with OVCAR-3 ovarian, 52.5 µM; in the experiment on PC-3 prostate, 91.4 µM; in the experiment with RXF 393 renal, greater than 100 µM. In the experiment on SK-OV-3 ovarian, this compound returned a TGI greater than 100 µM.
Take `Cc1ccc2cnc(N)c(C#Cc3cncc(C(=O)Nc4ccc(CN5CCN(C)CC5)c(C(F)(F)F)c4)c3)c2c1`: the GI50 was 0.252 µM in the experiment with ACHN renal; 0.317 µM with EKVX NSCLC; 0.582 µM in the experiment with HCC-2998 colon; 0.145 µM in the experiment on MALME-3M melanoma; 0.633 µM in the experiment on OVCAR-3 ovarian; 0.679 µM with PC-3 prostate. Further, the values for the GI50 with RXF 393 renal and in the experiment with SK-OV-3 ovarian were 0.632 µM and 0.869 µM, respectively. The TGI with ACHN renal amounted to 0.864 µM; in the experiment with EKVX NSCLC it was 1.01 µM; with HCC-2998 colon it was 1.3 µM; in the experiment with MALME-3M melanoma, 0.62 µM; with OVCAR-3 ovarian, 1.29 µM; in the experiment on PC-3 prostate, 1.43 µM. Further, the figures for the TGI with RXF 393 renal and in the experiment with SK-OV-3 ovarian were 1.29 µM and 1.63 µM, respectively.
With `Cc1cc(C)c2c(c1)CC1(Cc3c(C)cc(C)cc3C1=O)C2=O` (configuration not stated), the TGI in the experiment with ACHN renal, with EKVX NSCLC, with HCC-2998 colon, in the experiment with MALME-3M melanoma, in the experiment with MDA-N and in the experiment on OVCAR-3 ovarian was greater than 100 µM each time. The TGI with PC-3 prostate and with RXF 393 renal was greater than 100 µM each time.
In the case of `COc1ccc(N2C(=O)/C(=C/c3ccc(N(CCC#N)CCC#N)cc3)N=C2c2ccccc2)c(OC)c1`, the TGI in the experiment with ACHN renal, in the experiment with EKVX NSCLC, with HCC-2998 colon, in the experiment on MALME-3M melanoma, in the experiment with MDA-N and in the experiment with OVCAR-3 ovarian was greater than 100 µM each time. Besides, the TGI in the experiment on SK-OV-3 ovarian was greater than 100 µM.
Consider `O=c1/c(=C/c2ccc(-c3ccc(Cl)cc3Cl)o2)sc2n1[C@@H](c1ccc3c(c1)OCO3)C=C(c1cc(F)c(Cl)cc1Cl)N=2`, for which the TGI in the experiment on ACHN renal is greater than 100 µM; in the experiment with MALME-3M melanoma, greater than 100 µM; in the experiment on MDA-N, greater than 100 µM; with PC-3 prostate, greater than 100 µM; in the experiment on RXF 393 renal, greater than 100 µM; in the experiment on SK-OV-3 ovarian it was 62.1 µM.
Consider `Cc1ccc(S(=O)(=O)N2CCN(CCO)CCN(S(=O)(=O)c3ccc(C)cc3)CCN(CCO)CC2)cc1`, for which the TGI with ACHN renal was 90.9 µM; with EKVX NSCLC it was 39.1 µM; in the experiment on HCC-2998 colon it was 29.7 µM; in the experiment on MDA-N it was 93.6 µM; with OVCAR-3 ovarian, 44.5 µM; in the experiment with PC-3 prostate, greater than 100 µM. The same compound gave a TGI in the experiment with RXF 393 renal of 82.1 µM.
In the case of `COc1cc(S(=O)(=O)N/N=C/c2cc(Br)c(O)c(OC)c2)c(OC)cc1NC(C)=O`, the TGI with ACHN renal, with EKVX NSCLC, in the experiment on MDA-N, in the experiment with OVCAR-3 ovarian, with PC-3 prostate and in the experiment with RXF 393 renal was greater than 100 µM in each case. In the experiment with SK-OV-3 ovarian, the TGI was greater than 100 µM.
Take `O=C(Nc1nc(C23CC4CC(CC(C4)C2)C3)cs1)c1cc2cc([N+](=O)[O-])ccc2oc1=O`: the TGI in the experiment on ACHN renal, in the experiment with EKVX NSCLC, in the experiment on HCC-2998 colon, with MALME-3M melanoma, in the experiment on MDA-N and in the experiment with OVCAR-3 ovarian was greater than 100 µM throughout. Moreover, the TGI in the experiment with PC-3 prostate is greater than 100 µM; in the experiment on RXF 393 renal it was 74.8 µM.

The values above are taken from PubChem BioAssay (NCI).
